Values of other authors in patent US10751294B1, “Development of an optimized avanafil-loaded invasomal transdermal film” (King Abdulaziz University, priority 2019, dated 2020).
Like-named read-outs stand apart in the source and are kept apart here.

Tests used:
[1] = not given; remark: listed apart in the source
[2] = in water, methanol, and ethanol at 25° C.
[3] = not given; remark: listed apart in the source

Row | pKa (acidic) | pKa (basic) | log P [1] | solubility [2] [µg/mL] | drug permeation enhanced (fold) ([3]; from invasomes) | drug permeation enhanced (fold) ([3]; from transfersomes) | SMILES
1 | 11.84 | 5.89 | 1.84 | < 1000 |  |  | COc1ccc(CN=c2[nH]c(N3CCC[C@H]3CO)ncc2C(=O)NCc2ncccn2)cc1Cl [AVA, Avanafil]
2 |  |  |  |  | 7.2 | 1.8 | O=C(O)CN(CC(=O)O)Cc1cc2c(cc1O)Oc1cc(O)c(CN(CC(=O)O)CC(=O)O)cc1C21OC(=O)c2ccccc21 [calcein]
